Tests used:
[1] = target: Human Lymphocyte PDE IV; assay: Human Lymphocyte cAMP Phosphodiesterase Assay (inhibition of PDE IV); format: biochemical; conditions: Inhibition of Human Lymphocyte PDE IV (human B cell line 43D supernatant)
Method: Human B cell line (43D) was cultured at 37°C in 7% CO2 in RPMI 1640 with L-glutamine and 10% Nu-Serum. Prior to the assay ∼1.5x10^8 cells were centrifuged at 1000 rpm for 10 minutes in a table top clinical centrifuge. The pellet was resuspended in 2-3 ml of 45 mM Tris-HCl buffer, pH 7.4. The suspension was homogenized and centrifuged at 12,000 x g 4°C for 10 minutes. The supernatant was diluted to 28 ml with Tris-HCl buffer and used directly in the assay or stored at -20°C. The final concentration of DMSO in the PDE incubation medium was 1%. Nitraquazone was included in each assay (10 and 100µM) as a reference standard.
The phosphodiesterase incubation medium contained 10 mM Tris-HCl buffer, pH 7.7, 10 mM MgSO4, 0.1-1µM […] (0.2 µCi) in a total volume of 1.0 ml. Following addition of the enzyme, the contents were mixed and incubated for 10 min at 30°C. The reaction was terminated by immersing the tubes in a boiling-water bath for 90 sec. After the tubes were cooled in an ice-water bath, 0.1 ml (100µg) of 5'-nucleotidase from snake venom (Crotalus atrox, Sigma V-7000) was added to each tube. The contents were mixed and incubated for 30 min at 30°C. The nucleotidase reaction was terminated by immersing the tubes in a boiling water bath for 60 sec. […]

[2] = test system: plaque-forming cells (PFC); assay: Hemolytic Plaque Forming Cell (PFC) Assay, immunosuppressive activity; format: in vivo, C3H female mice; conditions: Mus musculus, 96 h; oral dosage form; mice sensitized with SRBC; spleens taken four days after SRBC inoculation; read-out: ED50 (Immune PFC)
Source text: This procedure is a modification of "The agar plaque technique for recognizing antibody producing cells," a procedure initially described by Jerne, et al. [Cell-bound Antibodies, Amos and Kaprowski editors (Wistar Institute Press, Philadelphia, 1963) p. 109].
Groups of 5-6 adult C3H female mice were sensitized with 1.25 x 10^8 sheep red blood cells (SRBC) and simultaneously treated with an oral dosage form of the test material in an aqueous vehicle. Animals in a control group receive the same volume of vehicle. Four days after SRBC inoculation, spleens are dispersed in glass homogenizers. The number of nucleated cells (WBC) is determined and the spleen cell suspension is mixed with SRBC, guinea pig complement and agar solution at 0.5% concentration. Aliquots of the above mixture (0.1 ml) are dropped on four separate quadrants of a Petri dish and are covered with cover slips. After two hours incubation at 37°C, areas of hemolysis around plaque-forming cells (PFC) are counted with a dissecting microscope. Total WBC/spleen, PFC/spleen and PFC/10^6 WBC (PPM) are calculated for each mouse spleen. Geometric means of each treatment group are then compared with the vehicle-treated control group.

[3] = test system: Human PBL; assay: Mitogenic response of human peripheral blood lymphocytes to concanavalin A (3H-thymidine uptake); format: cell-based; conditions: Lymphocyte, concanavalin A 2 µg/ml, 48 hours, read-out: % Suppression
Method: This procedure is a modification of a procedure initially described by Greaves, et al. ["Activation of human T and B lymphocytes by polyclonal mitogens," Nature, 248, 698-701 (1974)].
Human mononuclear cells (PBL) are separated from heparinized whole blood by density gradient centrifugation in Ficoll-Paque (Pharmacia). After washing, 5 x 10^4 cells/well are cultured in microtiter plates with minimal essential media supplemented with 1% human serum, gentamicin, sodium bicarbonate, 2-mercaptoethanol, glutamine, non-essential amino acids, and sodium pyruvate. The mitogen concanavalin A (Sigma) is used at a concentration of 2 µg/ml. Test materials are tested at concentrations between 10^-4 and 10^-10 M, by addition to the culture at time 0. Cultures are set up in quadruplicate and incubated at 37°C in a humidified atmosphere with 5% CO2 for 48 hours. A pulse of 1.0 µCi/well of ^3H-thymidine is added for the last 4 hours. Cells are collected on glass fiber filters with an automatic harvester and radioactivity is measured by standard scintillation procedures. The 50% inhibitory concentration ("IC50") for mitogenic stimulation is determined graphically. The compounds of the present invention show immunosuppressive activity when tested by this method.
The % suppression represents test well counts minus background (wells with no concanavalin A) divided by control well counts (wells with no compound) minus background times 100.

[4] = test system: Arachidonic Acid-Induced Ear Edema (AAEE); assay: Arachidonic Acid-Induced Ear Edema (AAEE) in the mouse, anti-inflammatory activity; format: in vivo, Female Charles River ICR mice; conditions: 1 h, ear plug weight one hour after arachidonic acid challenge
Method: This procedure is a modification of a procedure described by Young et al., J. Invest. Derm., 82:367-371 (1984).
Female Charles River ICR mice 23-27 grams are administered 0.2 ml of test material. The mice are later challenged with 20 µl of arachidonic acid applied topically to the ear. One hour after challenge, the weight of an 8 mm disc is determined. The mean increase in ear plug weight is calculated. Materials with anti-inflammatory activity inhibit the increase in ear plug weight.

[5] = test system: mice; assay: Toxicology, 2 weeks dosing in mice; format: in vivo; conditions: 3 to 25 mg/kg/day

Structure (SMILES)	IC50 [1] [nM]	ED50 [2] [mg/kg]	inhibition at 0.1 µM [3] [%]	inhibition at 1 µM [3] [%]	inhibition at 10 µM [3] [%]	inhibition at 100 µM [3] [%]	ED50 [4] [mg/kg]	CONCLUSION (mortality) [5]
O=c1c2cccnc2c(-c2cccc([N+](=O)[O-])c2)nn1Cc1ccncc1 [Compound I, 6-(4-pyridylmethyl)-8-(3-nitrophenyl)pyrido[2,3-d]pyridazin-5-one]	0.23	1	83	80	85	100	0.003	no mortality occurred at any of the dose levels tested.
O=c1c2cccnc2c(-c2cccc(Cl)c2)nn1Cc1ccncc1 [Compound II, 6-(4-pyridylmethyl)-8-(3-chlorophenyl)pyrido[2,3-d]pyridazin-5-one]	1	3	74	83	87	100	0.009	no mortality occurred at any of the dose levels tested.

— patent EP0612321B1, “PYRIDO PYRIDAZINONE AND PYRIDAZINTHIONE COMPOUNDS WITH PDE IV INHIBITING ACTIVITY” (SYNTEX (U.S.A.) INC., priority 1991, dated 1993)
